Legend:
[1] = tested on: human mutant ATXN3Q84; type: cell-based; details: sagittal brain slices treated for 48 hours, cerebellum and brainstem
Description: (§1) Nine slices per brain were used in each set of cultures. […] After 48 hours of incubation at 37° C./5% CO2, brain slices were assessed for ATXN3 levels by immunoblotting or immunofluorescence and for cell viability. For immunoblotting, each slice was macrodissected into separate cerebellum and brainstem that were immediately frozen at −80° C. in 80 μL and 150 μL of cold RIPA buffer containing protease inhibitors (Complete, Roche Diagnostics), respectively. Cell viability was assessed on treated slices by incubation in propidium iodide (PI) 1 μg/mL in culture medium for 1 hour. Slices were then mounted in PROLONG Gold Antifade Reagent (Invitrogen) and imaged using a FV500 Olympus confocal microscope.
(§2) Protein lysates from cell cultures, mouse brain slices or mouse brains were obtained by lysis in RIPA buffer containing protease inhibitors (Complete, Roche Diagnostics), followed by sonication and centrifugation. The supernatants (soluble protein fractions) were collected, total protein concentration was determined using the BCA method (Pierce) and then stored at −80° C. […] Pellets corresponding to insoluble protein fractions were resuspended in 100 μL of Laemmli buffer 2× and boiled for 10 min. Insoluble proteins were then quantified, and 100 μg were loaded in a filter trap assay apparatus and transferred to a nitrocellulose membrane (0.45 μm pore) that was incubated overnight with rabbit anti-MJD antibody (1:5000) at 4° C. Bound primary antibodies were visualized by incubation with a peroxidase-conjugated anti-mouse or anti-rabbit secondary antibody (1:10000; Jackson Immuno Research Laboratories) followed by treatment with the ECL-plus reagent (Western Lighting, PerkinElmer) and exposure to autoradiography films. Band intensity was quantified by densitometry using ImageJ.
To assess the efficacy of the five compounds to reduce ATXN3 levels in the mammalian brain, secondary screens in organotypic brain slice cultures derived from hemizygous YACMJD84.2 (Q84) transgenic mice were performed.

[2] = tested on: mouse Atxn3; assay: Organotypic brain slice cultures from YACMJD84.2 (Q84) mice, immunoblotting; type: cell-based; details: sagittal brain slices treated for 48 hours, cerebellum and brainstem
Description: as §1
Protein lysates from cell cultures, mouse brain slices or mouse brains were obtained by lysis in RIPA buffer containing protease inhibitors (Complete, Roche Diagnostics), followed by sonication and centrifugation. The supernatants (soluble protein fractions) were collected, total protein concentration was determined using the BCA method (Pierce) and then stored at −80° C. […] Insoluble proteins were then quantified, and 100 μg were loaded in a filter trap assay apparatus and transferred to a nitrocellulose membrane (0.45 μm pore) that was incubated overnight with rabbit anti-MJD antibody (1:5000) at 4° C. […] Band intensity was quantified by densitometry using ImageJ. […]

[3] = tested on: insoluble ATXN3; assay: Subchronic treatment of Q84 mice, filter trap analysis of insoluble fractions; type: in vivo, human; details: brainstem insoluble fractions
Description: (§3) YACMJD84.2 transgenic mice were housed in cages with a maximum number of five animals and maintained in a standard 12-hour light/dark cycle with food and water ad libitum. Genotyping was performed using DNA isolated from tail biopsy at the time of weaning, and genotypes of all studied mice were confirmed using DNA extracted from tails collected post-mortem. […] Five hours after the final injection, mice were anesthetized with ketamine/xylazine and perfused transcardially with phosphate buffered saline (PBS) (for RNA and protein studies), and brains were immediately placed on dry ice and stored at −80° C.
Protein lysates from cell cultures, mouse brain slices or mouse brains were obtained by lysis in RIPA buffer containing protease inhibitors (Complete, Roche Diagnostics), followed by sonication and centrifugation. The supernatants (soluble protein fractions) were collected, total protein concentration was determined using the BCA method (Pierce) and then stored at −80° C. […] Pellets corresponding to insoluble protein fractions were resuspended in 100 μL of Laemmli buffer 2× and boiled for 10 min. Insoluble proteins were then quantified, and 100 μg were loaded in a filter trap assay apparatus and transferred to a nitrocellulose membrane (0.45 μm pore) that was incubated overnight with rabbit anti-MJD antibody (1:5000) at 4° C. […] Band intensity was quantified by densitometry using ImageJ.

[4] = tested on: endogenous mouse Atxn3; assay: Subchronic treatment of Q84 mice, immunoblot of soluble lysates; type: in vivo; details: 15 mg/kg IP daily for 10 days
Description: as §3, §2
(§4) Five hours after the final injection on day 10, mice were sacrificed and brains collected for total protein and RNA extraction from different regions: brainstem, cerebellum, cervical spinal cord, and forebrain.

[5] = tested on: human ATXN3; assay: as above; type: in vivo; details: 15 mg/kg IP daily for 10 days
Description: as §3, §2, §4

[6] = tested on: ATXN3Q81.Luc fusion protein; assay: Confirmation dose-response, ATXN3 levels by immunoblotting; type: cell-based, human; details: 293.ATXN3Q81Luc cells
Source text: Full-length ATXN3 (Accession number ABS29269) carrying either a normal or an expanded polyQ tract (Q26 or Q81) was subcloned in the vector pcDNA3.1 FLAG.firefly Luciferase. The mammalian expression plasmids pcDNA.FLAG.ATXN3Q26.Luc and pcDNA.FLAG.ATXN3Q81.Luc were confirmed by sequencing and shown to express N-terminal FLAG-tagged ATXN3Q26 or ATXN3Q81 fused with firefly Luciferase (Luc), respectively. These neomycin-resistant plasmids were transfected into HEK293 cells using Lipofectamine LTX (Invitrogen) during four hours, after which medium was replaced by growth medium (DMEM/10% fetal bovine serum (FBS)/1% penicillin/streptomycin (PS)). […] After one month of passage in selection medium, stably transfected clones for each cell line (293.ATXN3Q26Luc and 293.ATXN3Q81Luc) were pooled and frozen in liquid nitrogen. Stably transfected cell lines were maintained in selection medium except during treatment with specific compounds that were diluted in growth medium.
Protein lysates from cell cultures, mouse brain slices or mouse brains were obtained by lysis in RIPA buffer containing protease inhibitors (Complete, Roche Diagnostics), followed by sonication and centrifugation. The supernatants (soluble protein fractions) were collected, total protein concentration was determined using the BCA method (Pierce) and then stored at −80° C. Total proteins (50 μg from cell and slice cultures or 75 μg from brain regions of mice) were resolved in 10% SDS-PAGE gels, and corresponding PVDF membranes were incubated overnight at 4° C. with primary antibodies: mouse anti-ATXN3 (1H9) (1:2000; MAB5360, Millipore), goat anti-Luciferase (1:500; G7451, Promega), mouse anti-FLAG (M5) (1:500; IB13091, Sigma), rabbit anti-LC3 (1:500; PM036, MBL International Corporation), mouse anti-HSP90β (1:1000; ADI-SPA842, Enzo Life Sciences), rabbit anti-HSP90α (1:1000; ab2928, Abcam), mouse anti-HSP70 (1:500; SPA810, Enzo Life Sciences), rabbit anti-HSP40 (1:1000; #4868, Cell Signaling), rabbit anti-HSP25 (1:1000; ADI-SPA801, Enzo Life Sciences), rabbit anti-HSF1 (1:1000, ADI-SPA-901, Enzo Life Sciences), rabbit anti-ubiquitin (1:1000, Z 0458, Dako), rabbit anti-RAD23A (1:5000; TA307264, Origene), rabbit anti-RAD23B (1:2000; A302-306A, Bethyl Labs), rabbit anti-α-Tubulin (11H10) (1:10000; #2125, Cell Signaling), and mouse anti-GAPDH (1:1000; MAB374, Millipore). Pellets corresponding to insoluble protein fractions were resuspended in 100 μL of Laemmli buffer 2× and boiled for 10 min. Insoluble proteins were then quantified, and 100 μg were loaded in a filter trap assay apparatus and transferred to a nitrocellulose membrane (0.45 μm pore) that was incubated overnight with rabbit anti-MJD antibody (1:5000) at 4° C. Bound primary antibodies were visualized by incubation with a peroxidase-conjugated anti-mouse or anti-rabbit secondary antibody (1:10000; Jackson Immuno Research Laboratories) followed by treatment with the ECL-plus reagent (Western Lighting, PerkinElmer) and exposure to autoradiography films. Band intensity was quantified by densitometry using ImageJ.

## O=C1CCc2ccc(OCCCCN3CCN(c4cccc(Cl)c4Cl)CC3)cc2N1 [aripiprazole]
[1]
  levels of human mutant ATXN3Q84: reduced levels
[2]
  levels of mouse Atxn3: reduced levels
[3]
  insoluble ATXN3 vs vehicle: no differences
[4]
  levels of endogenous mouse Atxn3: trend toward decreased levels
[5]; brainstem, Q84 mice
  HMW ATXN3 species, of levels in vehicle-treated mice: 44%
[5]; soluble lysates
  levels of monomeric human ATXN3: trend toward decreased levels
[6]
  levels of ATXN3Q81.Luc fusion protein: confirmed to decrease levels of ATXN3Q81.Luc fusion protein

From patent US20190070174A1, “METHODS OF TREATING NEURODEGENERATIVE DISEASES” (priority 2016, published 2019)
